# PubChem BioAssay AID720589 (Broad Institute, 2013)
# Activity calls are given as the source filed them.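 How the source made its calls: active means fitted curve drops below -35% activity at a concentration within twice the top valid tested dose; inconclusive means no clear call, values can overlap the other calls; inactive means signal rising instead of falling, among other cases.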
# Test: ATP-based viability loss in HepG2 cells – cell-based, CellTiter-Glo luminescence, cherry-pick, set 3, cytotoxicity control, dose response (AID 720589)
# Settings: HepG2 viability, ATP luminescence (CellTiter-Glo), 72 h; at 0.011 µM; hits give low values; 0% = untreated, negative = ATP loss
row,Compound,max activity
1,Cc1csc(NC(=O)CCc2c(C)nc3cc(-c4ccc(Cl)cc4)nn3c2C)n1,11.5% (inactive)
2,COc1ccc(/C=N/Nc2ccc(C(=O)O)cc2)cc1Br,-16% (inactive)
3,CC(=O)Nc1cccc(-c2ccnc3c2CC(C)(C(=O)NCc2ccc(N(C)C)cc2)O3)c1 (stereo not drawn),32.9% (inactive)
4,COC(=O)C[C@H]1CC[C@H]2[C@H](COc3ccc(NC(=O)Nc4cccc(Cl)c4)cc3C(=O)N2C)O1,-21.5% (inactive)
5,COc1ccc(N=C2C(=O)Nc3ccc(C)c(Br)c32)cc1,23.9% (inactive)
6,N#C[C@@H]1[C@H](c2ccc(C#Cc3ccc(F)cc3)cc2)[C@@H](CO)N1C(=O)Nc1ccc(F)cc1,-24.6% (inactive)
7,CCN1CCN(/C=N/c2nc3c(s2)CCCC3)CC1,-25.3% (inactive)
8,COc1ccc(/C=C2/NC(=O)N(CC(=O)Nc3cccc(C)c3)C2=O)cc1O,18.1% (inactive)
9,COc1ccc(C(=O)OCC(=O)Nc2ccc(Cl)c(C(F)(F)F)c2)c(OC)c1OC,-15% (inactive)
10,CCN1C/C(=C/c2ccc(OC)c(O)c2)C(=O)/C(=C/c2ccc(OC)c(O)c2)C1,-39.6% (inactive)
11,Cc1c(-c2nc(-c3ccc(C(C)(C)C)cc3)no2)n(C)oc1=O,-27.3% (inactive)
12,COC(=O)C[C@@H]1CC[C@@H]2[C@H](COc3ccc(NC(=O)c4ccc(C(F)(F)F)cc4)cc3C(=O)N2C)O1,-32.2% (inactive)
13,COc1ccccc1-c1cn(CC[C@H]2CC[C@@H](NC(=O)C3CCCC3)[C@@H](CO)O2)nn1,18.9% (inactive)
14,O=C(NCc1ccc(F)cc1)N1[C@H]2CC[C@@H]1C=C(c1ccc(F)cc1OCc1ccccc1)C2,21.9% (inactive)
15,COC(=O)C[C@@H]1CC[C@@H]2[C@H](COc3ccc(NC(=O)c4cc(F)cc(F)c4)cc3C(=O)N2C)O1,-46.8% (inactive)

# Same assay, conditions: HepG2 viability, ATP luminescence (CellTiter-Glo), 72 h; at 0.035 µM; hits give low values
row,Compound,max activity
1,O=C1NC2C(=CC(O)C(O)C2O)c2cc3c(cc21)OCO3 (stereo not drawn),-17.9% (inactive)

# Same assay, conditions: HepG2 viability, ATP luminescence (CellTiter-Glo), 72 h; at 0.035 µM; hits give low values; 0% = untreated, negative = ATP loss
row,Compound,max activity
1,N#CC1C=Cc2c(ccc3ccccc23)N1C(=O)c1ccccc1 (stereo not drawn),-32.3% (inactive)
2,C[C@@H]1CN([C@H](C)CO)S(=O)(=O)c2ccc(C#Cc3ccncc3)cc2O[C@@H]1CN(C)C(=O)Nc1ccc2c(c1)OCO2,-31.9% (inactive)
3,COc1ccc(/C=C2\SC(=O)N(CCCC(=O)Nc3ccc(C(=O)O)cc3)C2=O)cc1,21% (inactive)
4,C[C@H]1CN([C@@H](C)CO)C(=O)Cc2cc(NC(=O)C3CC3)ccc2O[C@H]1CN(C)S(=O)(=O)c1ccc(Cl)cc1,-39.2% (inactive)

# Same assay, conditions: HepG2 viability, ATP luminescence (CellTiter-Glo), 72 h; at 0.1 µM; hits give low values; 0% = untreated, negative = ATP loss
row,Compound,max activity
1,O=C(NC(=O)c1ccccc1)Nc1ccccc1,-38.9% (inactive)
2,CCOc1ccc(N=C2C(=O)Nc3ccc(C)c(Br)c32)cc1,11.1% (inactive)
3,Cc1ccc(C(C(=O)NCc2ccco2)N(C(=O)CNC(=O)c2cccs2)c2c(C)cc(C)cc2C)cc1 (stereo not drawn),-27% (inactive)
4,COC(=O)Cc1ccc(NC(=O)c2ccccc2Cl)cc1,-26.9% (inactive)
5,C/C(=N\Nc1cccc2cccnc12)c1ccccn1,-36.8% (inactive)
6,COc1ccc(C/C(N)=N/OC(C)=O)cc1OC,-33.4% (inactive)
7,Cc1occc1-c1n[nH]c(=S)n1C,-6.52% (inactive)
8,C[C@H]1CN([C@@H](C)CO)C(=O)Cc2cc(NC(=O)CCCCCC(=O)Nc3ccccc3N)ccc2O[C@H]1CN(C)Cc1ccc(Oc2ccccc2)cc1,-23.9% (inactive)
9,CC(=O)Nc1cc(C(=O)NCc2ccco2)ccc1Sc1ccc(F)cc1,-21.9% (inactive)

# Same assay, conditions: HepG2 viability, ATP luminescence (CellTiter-Glo), 72 h; at 0.3 µM; hits give low values; 0% = untreated, negative = ATP loss
row,Compound,max activity
1,COc1ccc(S(=O)(=O)N2CCCc3nc(-c4ccc(F)cc4)ccc32)cc1,-23.5% (inactive)
2,N#C[C@H]1[C@H](c2ccc(-c3ccccc3F)cc2)[C@@H](CO)N1C(=O)Cc1ccccc1,-22.2% (inactive)
3,Cc1ccc(/C=C2\SC(=S)N(CCC(=O)NNC(=O)c3ccccc3O)C2=O)cc1,-42.1% (inactive)
4,CC(C)CC(NC(=O)c1cccs1)c1nnc(SCc2ccc(Cl)c(Cl)c2)n1C (stereo not drawn),-28.1% (inactive)
5,COc1ccc(/C=C2\Oc3ccccc3C2=O)cc1,21% (inactive)
6,O=c1c2ccccc2oc2cc(C#CC3(O)CCCCC3)ccc12,13.9% (inactive)
7,COC(=O)C[C@@H]1CC[C@@H]2[C@H](COc3ccc(NC(=O)c4cccc(F)c4)cc3C(=O)N2C)O1,-26.8% (inactive)

# Same assay, conditions: HepG2 viability, ATP luminescence (CellTiter-Glo), 72 h; at 0.9 µM; hits give low values; 0% = untreated, negative = ATP loss
row,Compound,max activity
1,COc1cc(/C=N\Nc2nc(-c3ccc(C)cc3)c(NC(C)=O)s2)ccc1O,-20.6% (inactive)
2,O=C1C(=O)N(CCS(=O)(=O)c2ccccc2)c2ccc(Cl)cc21,-12.3% (inactive)
3,CCc1ccc(Cn2ncc3c(C(=O)O)cc(C)nc32)cc1,-27.2% (inactive)
4,O=c1oc2cc(O)ccc2s1,-35.6% (inactive)
5,C[C@@H]1CN([C@H](C)CO)C(=O)c2cc(NC(=O)CCCCCC(=O)Nc3ccccc3N)ccc2O[C@H]1CN(C)S(=O)(=O)c1ccc(Cl)cc1,-26.7% (inactive)
6,CCc1ccc2oc(C(=O)N3CCN(c4ccccc4OC)CC3)cc(=O)c2c1,-16.2% (inactive)
7,O=C(Nc1ccc(NC(=O)c2cc3ccccc3o2)cc1)c1ccc2c(c1)OCCO2,-30.6% (inactive)
8,COC(=O)C[C@@H]1CC[C@@H]2[C@H](COc3ccc(NC(=O)c4ccc(F)cc4)cc3C(=O)N2C)O1,-31.5% (inactive)

# Same assay, conditions: HepG2 viability, ATP luminescence (CellTiter-Glo), 72 h; at 2.85 µM; hits give low values; 0% = untreated, negative = ATP loss
row,Compound,max activity
1,O=C(O)c1cccc(N/N=C/c2ccc(OC(F)(F)F)cc2)c1,-28.9% (inactive)
2,C(=Cc1c[nH]c2ccccc12)c1ccc2ccccc2n1,-21.4% (inactive)
3,Cc1cc(C)cc(C(=O)NC(=S)Nc2ccc(Cc3ccncc3)cc2)c1,-39.1% (inactive)
4,CC(Oc1cccc(Cl)c1)C(=O)NCCCCc1ccccc1 (stereo not drawn),18.7% (inactive)
5,COC(=O)C[C@@H]1CC[C@@H]2[C@@H](COc3ccc(NC(=O)Cc4cccs4)cc3C(=O)N2C)O1,-25% (inactive)
6,C[C@@H]1CN([C@@H](C)CO)C(=O)Cc2cc(NC(=O)Nc3ccc(C(F)(F)F)cc3)ccc2O[C@@H]1CN(C)Cc1ccc(C(=O)Nc2ccccc2N)cc1,-33% (inactive)
7,N#C[C@H]1[C@H](c2ccc(C#Cc3ccccc3F)cc2)[C@@H](CO)N1C(=O)C1CCOCC1,-21.8% (inactive)
8,CCOc1ccc(-c2cc(CCCC(=O)NCc3ccc(C)cc3)no2)cc1,-24.4% (inactive)

# Same assay, conditions: HepG2 viability, ATP luminescence (CellTiter-Glo), 72 h; at 8 µM; hits give low values; 0% = untreated, negative = ATP loss
row,Compound,max activity
1,Nc1ccc2c(c1)OC1(CCCC1)O2,-32.8% (inactive)
2,O=C(COC(=O)c1ccc[nH]c1=O)Nc1ccc(N2CCCCC2)cc1,-25.3% (inactive)
3,O=C(Nc1cccc(Oc2ccc3c(c2)C(=O)NC3=O)c1)c1cccs1,-36% (inactive)
4,COc1ccccc1NC(=O)N1[C@@H]2CNC[C@H]1[C@@H]2c1ccc(-c2ccc(C#N)cc2)cc1,-24.4% (inactive)

# Same assay, conditions: HepG2 viability, ATP luminescence (CellTiter-Glo), 72 h; at 21 µM; hits give low values; 0% = untreated, negative = ATP loss
row,Compound,max activity
1,COc1ccc(CN(C)C[C@H]2Oc3ccc(NC(=O)CCCCCC(=O)Nc4ccccc4N)cc3CC(=O)N([C@H](C)CO)C[C@H]2C)cc1,-31.8% (inactive)

# Same assay, conditions: HepG2 viability, ATP luminescence (CellTiter-Glo), 72 h; at 26 µM; hits give low values; 0% = untreated, negative = ATP loss
row,Compound,max activity
1,CC(=O)ON=C1C=CC(=C(C#N)c2ccccc2)C=C1,-27.6% (inactive)
2,COc1ccc(/C=C(/C(=O)c2cccs2)N2C=CC=CC2=C(C#N)C#N)cc1,-33.6% (inactive)
3,Cc1cccc(NC(=O)CN2CCN(C(=O)CNC(=O)c3ccc(-c4ccccc4)cc3)CC2)c1C,-36.3% (inactive)
4,CCN(CC)c1ccc(C2NC(=O)c3ccccc3N2)cc1 (stereo not drawn),-26.4% (inactive)
5,Oc1c(Cl)cc(Cl)c2cccnc12,-31.8% (inactive)
6,CC(C)(C)C(=O)Cn1ncc(Cl)c(Cl)c1=O,-23.7% (inactive)
7,C#CCOCCOCCOCCNc1nc(N2CCN(C(=O)CCCCCCCCCCNC(=O)Cn3cc(C[C@@H](C)O)nn3)CC2)nc(N2CCN(C(=O)CCCCCCCCCCNC(=O)[C@H](CO)n3cc(CCCSC)nn3)CC2)n1,39.2% (inactive)
8,Cc1ccsc1/C=N/Nc1ccc(C(=O)O)cc1,-27.6% (inactive)
9,CO[C@H]1CN(C)C(=O)c2cc(NC(=O)c3ccc(Oc4ccccc4)cc3)ccc2OC[C@H](C)NC[C@@H]1C,-95.1% (inactive)
10,CCNC(=O)[C@@H]1[C@@H](CO)[C@@H]2Cn3c(ccc(C4=CCCCC4)c3=O)[C@H]1N2CC,-22.3% (inactive)
11,O=C(O)c1ccc(N/N=C/c2ccc(OC(=O)c3cccc(Cl)c3)cc2)cc1,-33.2% (inactive)
12,COc1ccc(C(C)(O)c2nc(-c3cccc(F)c3)cs2)cc1 (stereo not drawn),-21.6% (inactive)
13,CC(=O)Oc1ccc(-c2ccc(C(=O)Nc3cccc(S(=O)(=O)N4CCOCC4)c3)cc2)cc1,-21.6% (inactive)
14,C(=Cc1cnc2ccccc2n1)c1ccc2c(c1)OCO2,-50.5% (inactive)
15,Cc1cc(C(=O)CN2C(=O)c3ccccc3S2(=O)=O)c(C)n1C(C)C,17.7% (inactive)
16,O=c1c(Cl)cc(Cl)nn1-c1ccccc1,-34.4% (inactive)
17,COc1cccc(CN2CCC2(C)C(=O)Nc2cccc3cccnc23)c1F (stereo not drawn),-24% (inactive)
18,COC(=O)CC1(C(=O)OC)Oc2ccc(Br)cc2C(=O)N1c1cccc(Cl)c1Cl (stereo not drawn),-23% (inactive)
19,CCOc1cc(N2CCC(O)CC2)ccc1Nc1ncc2c(n1)N(C)c1ccccc1C(=O)N2C,-18.4% (inactive)
20,CCOc1ccc(N=Nc2ccc(O)c3ncccc23)cc1,-26.7% (inactive)
21,O=C1CCC2S/C(=C/Nc3ccc(C(F)(F)F)cc3)C(=O)N12 (stereo not drawn),25.6% (inactive)
